In US9456973B2, “Methionyl-methionine stereoisomers and use thereof in cosmetics” (EVONIK DEGUSSA GMBH, priority 2013, dated 2016):

What was measured:
Set-up in all cases: species or system human
[1] = Repair of bleached hair: tensile elongation forces by Dia-stron Tensile Tester MTT 670
Protocol: A tress section of human Euro-Natural hair, remis, double-drawn with a length of 23 cm and a width of 2.0 cm with a weight of 2.0 g and dark-brown color was wetted under a tap of running water over the course of 10 seconds. 8 g of a 30% strength aqueous hydrogen peroxide solution were mixed with 4 g of Basler Blond Claire bleaching powder, 2 mL of a 25% strength aqueous ammonia solution were added, and combined again and 8 g of the resulting paste were massaged into the tress section with the help of a comb and the protected hands. After a contact time of 30 minutes at room temperature, the tress section was washed for 2 minutes under running tap water at ca. 35° C. and then dried by means of an electronic hair dryer for 3 minutes while combing at the same time. The entire procedure was repeated once starting from the wetting of the tress section.
(§1) Afterwards, per treatment method 40 hairs were removed from the tress section and in each case the middle section of a hair with a length of 3 cm was crimped between two brass sleeves with plastic coating on the inside. The average area of each individual hair was measured using a Dia-stron FDAS760 fibre dimensional system and UvWin PC application software. The hair samples were then transferred to the sample cassette of a Dia-stron Tensile Tester MTT 670 and admixed in each case with demineralized water adjusted to pH 7 using citric acid. A measurement of the individual hair strands with the Single Fiber Method (Extension 20%, Rate 20 mm/min, Gauge Force 2, Maximum Force 200, Break Threshold 5, Sample Size 30 mm) was started. The hair samples were then removed from the sample cassette and covered with demineralized water in a plastic bowl.
(§2) For the treatment with hair conditioner, the water was removed after 30 minutes and the hair samples were covered with hair conditioner. After a contact time of 30 minutes, each individual hair sample was washed under a stream of running water at ca. 35° C. for 6 seconds. The hair samples were dried overnight at 22° C. and 50% relative atmospheric humidity.
For the treatment with shampoo, the water was removed after 30 minutes and the hair samples were covered with shampoo. After a contact time of 5 minutes, each individual hair sample was washed under a stream of running water at ca. 35° C. for 6 seconds. The hair samples were briefly dried by means of an electronic hair dryer and the shampoo treatment was repeated four times.
After the particular treatment, the measurement of the individual hair samples starting with the transfer to the sample cassette of the Dia-stron Tensile Tester MTT 670 was repeated.
The evaluation of the data takes place by reference to the parameters modulus of elasticity (E modulus), Load and/or Work. If a hair is pulled, the elongation is initially proportional to the applied force (Hooke's range). The modulus of elasticity describes the applied force per elongation (in Newton/mm^2) in the Hooke's range and therefore represents the tensile strength of a hair fibre. As soon as the hair has been elongated to a length of approximately 2%, it further deforms very rapidly up to ca. 25-30% of its original length, where the increase in the force required for this is minimal (Yield range). The parameter Load corresponds to the force (in Newtons) which is required to elongate the hair up to 15% and the parameter Work indicates the work required to elongate the hair from 0-15% (in Joules).

[2] = Hair fatigue breakage of bleached hair, Dia-stron Automatic Cyclic Tester (CYC800), Weibull analysis; details: simple hair conditioner (Table 3), 2.0%; Constant Stress method; vehicle 14 190 cycles; FIG. 8
Protocol: A tress section of human Euro-Natural hair, remis, double-drawn with a length of 23 cm and a width of 2.0 cm with a weight of 2.0 g and dark-brown color was wetted under a tap of running water over the course of 10 seconds. 8 g of a 30% strength aqueous hydrogen peroxide solution were mixed with 4 g of Basler Blond Claire bleaching powder, 2 mL of a 25% strength aqueous ammonia solution were added, and combined again and 8 g of the resulting paste were massaged into the tress section with the help of a comb and the protected hands. […]
Afterwards, per treatment method 40 hairs were removed from the tress section and in each case the middle section of a hair with a length of 3 cm was crimped between two brass sleeves with plastic coating on the inside. The average area of each individual hair was measured using a Dia-stron FDAS760 fibre dimensional system and UvWin PC application software. […]
In order to measure the hair fatigue breakage, the hair samples were transferred to the sample cassette of a Dia-stron Automatic Cyclic Tester (CYC800) and climatized at 22° C. and 50-55% rel. atmospheric humidity. […] The characteristic life span a of a hair fibre is calculated by means of Weibull analysis. […]

[3] = Repair of alkaline smoothed hair: tensile elongation forces by Tensile Tester; details: simple hair conditioner (Table 8); 0.5% DD/LL 1:1, 0.5% L-methionine or 2.0% wheat protein (25% active); vehicle 0.43 mN; FIG. 9
Protocol: as §1
as §2, with “humidity. […]” for “humidity.”
(§3) Afterwards, 40 hairs were removed from the tress section and measured as described in Example 1. […]

[4] = Repair of reductively smoothed hair: tensile elongation forces by Tensile Tester; details: simple hair conditioner (Table 9); 0.5% DD/LL 1:1 or 2.0% wheat protein (25% active); FIG. 10
Protocol: as §1
as §2, with “humidity. […]” for “humidity.”
as §3

[5] = Protection of hair against thermal stress (smoothing iron): hair fatigue breakage, Automatic Cyclic Tester; details: FIG. 11
Protocol: A tress section of human Euro-Natural hair, remis, double-drawn with a length of 23 cm and a width of 2.0 cm with a weight of 2.0 g and dark-brown color was wetted under a tap of running water over the course of 10 seconds. Then, 2 mL of shampoo (28.6% Texapon NSO in dist. water) were massaged into the hair for 30 seconds, washed out for a further 30 seconds under running tap water at ca. 35° C., and the hair tress was squeezed between two fingers and combed six times. The hair tress was dipped for 1 minute in 300 mL of active ingredient solution (active ingredient, demin. water, lactic acid, pH 5.5), squeezed between two fingers and rinsed for 30 seconds under running tap water at ca. 35° C. and combed. […]
Afterwards, 50 hairs were removed from the tress section and in each case the middle section of a hair with a length of 3 cm was crimped between two brass sleeves with plastic coating on the inside. The average area of each individual hair was measured using a Dia-stron FDAS760 fibre dimensional system and UvWin PC application software.
The hair samples were then transferred to the sample cassette of a Dia-stron Automatic Cyclic Tester (CYC800) and climatized at 22° C. and 50-55% rel. atmospheric humidity. […] The probability of survival and the characteristic life span a of a hair fibre were calculated by means of Weibull analysis.

[6] = Protection of hair against thermal stress (smoothing iron): denaturation temperature by differential scanning calorimetry; details: preventative treatment with active ingredient solution pH 5.5; vehicle 137.9° C.; FIG. 12
Protocol: A tress section of human Euro-Natural hair, remis, double-drawn with a length of 23 cm and a width of 2.0 cm with a weight of 2.0 g and dark-brown color was wetted under a tap of running water over the course of 10 seconds. Then, 2 mL of shampoo (28.6% Texapon NSO in dist. water) were massaged into the hair for 30 seconds, washed out for a further 30 seconds under running tap water at ca. 35° C., and the hair tress was squeezed between two fingers and combed six times. The hair tress was dipped for 1 minute in 300 mL of active ingredient solution (active ingredient, demin. water, lactic acid, pH 5.5), squeezed between two fingers and rinsed for 30 seconds under running tap water at ca. 35° C. and combed. The hair was dried using an electronic hair dryer for 3 minutes with simultaneous combing and then stored overnight in a climatically controlled chamber (37° C., 50% rel. atmospheric humidity).
The tress section was drawn four times in each case for 30 seconds through a smoothing iron (˜210° C.), which was pressed onto the tress by means of a 630 g weight. This treatment was repeated a total of five times from the wetting of the hair and shampoo treatment (in total 20 draws through the smoothing iron). […]

SMILES	improvement of Load at 15% elongation (Load 15%) ([1]; expanded hair conditioner (Table 4), 1.0% DD/LL/LD/DL 35:35:65:65 or 4.0% wheat protein (25% active), vehicle 1.28 mN, FIG. 5)	improvement of Work up to 15% elongation (Work 15%) ([1]; expanded hair conditioner (Table 4), 1.0% DD/LL/LD/DL 35:35:65:65 or 4.0% wheat protein (25% active), vehicle 3.51 μJ, FIG. 6)	improvement of Load at 15% elongation (Load 15%) ([1]; shampoo (Table 5), 1.00% DD/LL/LD/DL 35:35:65:65, contact 5 minutes, five treatments, vehicle 0.46 mN, FIG. 7)	improvement of Work up to 15% elongation (Work 15%) ([1]; shampoo (Table 5), 1.00% DD/LL/LD/DL 35:35:65:65, contact 5 minutes, five treatments, vehicle 2.46 μJ)	improvement of Load at 15% elongation (Load 15%) ([1]; simple hair conditioner (Table 3), 2.0% active, DD/LL/LD/DL = 1:1:1:1, contact 30 minutes, vehicle 2.65 mN, FIG. 3)	improvement of Work up to 15% elongation (Work 15%) ([1]; simple hair conditioner (Table 3), 2.0% active, DD/LL/LD/DL = 1:1:1:1, contact 30 minutes, vehicle 11.0 μJ, FIG. 4)	characteristic life span α: number of cycles in which 63.2% of all hair fibres tear [2]	improvement of Load at 15% elongation (Load 15%) [3]	improvement of Load at 15% elongation (Load 15%) relative to vehicle [4]	number of cycles at which 20% of the hair remain intact ([5]; preventative treatment with active ingredient solution pH 5.5, DD/LL weight ratio 1:1, vehicle 5500)	number of cycles at which 10% of the hair did not tear ([5]; preventative treatment with active ingredient solution pH 5.5, vehicle 8000)	hair denaturation temperature (TD) [6]	repair effect (Load 15%, Work 15%) compared with vehicle hair conditioner, in words ([1]; simple hair conditioner (Table 3), 2.0% raw material, FIGS. 3 and 4)
CSCCC(N)C(=O)NC(CCSC)C(=O)O (racemic) [DD/LL/LD/DL-methionyl-methionine]	4.85 mN	18.2 µJ	1.33 mN	2.58 µJ	4.14 mN	19.4 µJ	33 980 cycles						
CSCCC(N)C(=O)NC(CCSC)C(=O)O (centres unmarked) [DD/LL-methionyl-methionine]								3.76 mN	0.96 mN	10 000 cycles	22 000 cycles	139.9 °C	
CSCC[C@H](N)C(=O)O [L-methionine]								2.73 mN					could be further increased neither
